This assay deals with CXCR7 (Homo sapiens (Human), UniProt P25106). Nature of the assay: PathHunter CHO-K1 CXCR7 β-arrestin assay (agonistic activity). Conditions: β-arrestin recruitment in PathHunter CHO-K1 CXCR7 β-arrestin cells, 90 minutes at 37° C., geometric mean values. It counts as cell-based. The method, then: The CXCI12 receptor and CXCR7 agonistic activities of the compounds of formula (I) are determined in accordance with the following experimental method.
CXCR7, sequence (P25106 whole entry, the tested form may be a part): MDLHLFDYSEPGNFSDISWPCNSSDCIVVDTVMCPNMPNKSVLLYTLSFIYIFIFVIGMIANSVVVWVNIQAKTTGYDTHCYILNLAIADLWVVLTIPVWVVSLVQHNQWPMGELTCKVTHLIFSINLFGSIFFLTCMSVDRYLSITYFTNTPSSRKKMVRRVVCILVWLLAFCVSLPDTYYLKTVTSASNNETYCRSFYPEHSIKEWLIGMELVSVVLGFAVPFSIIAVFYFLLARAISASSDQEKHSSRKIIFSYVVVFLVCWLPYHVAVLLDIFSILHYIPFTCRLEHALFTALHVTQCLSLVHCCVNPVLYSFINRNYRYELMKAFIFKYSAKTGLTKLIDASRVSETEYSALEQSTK
CXCR7, sequence (P32121 whole entry partner, the tested form may be a part): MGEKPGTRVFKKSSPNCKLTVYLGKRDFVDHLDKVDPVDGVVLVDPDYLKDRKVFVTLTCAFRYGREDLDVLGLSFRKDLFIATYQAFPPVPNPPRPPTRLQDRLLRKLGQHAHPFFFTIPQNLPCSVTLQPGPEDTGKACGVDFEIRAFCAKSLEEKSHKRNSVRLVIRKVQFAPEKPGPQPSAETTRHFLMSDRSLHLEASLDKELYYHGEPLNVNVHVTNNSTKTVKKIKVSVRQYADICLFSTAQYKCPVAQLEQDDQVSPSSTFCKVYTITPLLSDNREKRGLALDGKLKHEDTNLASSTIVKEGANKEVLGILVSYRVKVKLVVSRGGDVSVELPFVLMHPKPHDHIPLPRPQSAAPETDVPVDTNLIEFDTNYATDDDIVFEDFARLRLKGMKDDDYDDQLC
The assay is using the PathHunter™ CHO-K1 CXCR7 β-arrestin cell line from DiscoverX. The system is based on the Enzyme Fragment Complementation Technology. Two complementing fragments of the β-galactosidase enzyme are expressed within stably transfected cells. The larger portion of β-gal, termed EA for Enzyme Acceptor, is fused to the C-terminus of b-arrestin 2. The smaller fragment, termed ProLink™ tag, is fused to CXCR7 at the C-terminus. Upon activation, b-arrestin is recruited which forces the interaction of ProLink and EA, allowing complementation of the two fragments of b-gal and the formation of a functional enzyme which is capable of hydrolysing the substrate and generating a chemiluminescent signal.
CHO-K1 CXCR7 β-arrestin cells are detached from culture dishes with a cell dissociation buffer (Invitrogen, #13151-014) and collected in growing medium (F12 HAMS 90% (v/v)/FCS 10% (v/v), Penicillin/streptomycin 1% (v/v)). 5000 cells per well (in 20 μl) are seeded in a 384 well plate (white-walled, clear bottom; BD Falcon #353274). The plate is incubated at 37° C./5% CO2 for 24 hours. Medium is then replaced by 20 μl OPTIMEM (Invitrogen #31985) for 3 to 4 hours. Test compounds are dissolved at 10 mM in DMSO and serially diluted in DMSO to 200× of the final concentration for dose response curves. Compounds are then diluted 1:33.3 in HBSS1X. 5 μl/well of HBSS1X/20 mM HEPES/0.2% BSA are added to the assay plate followed by addition of 5 μl/well of diluted compounds. CXCL12 (Peprotech #300-28A) may be used as a reference agonist. The plate is incubated for 90 minutes at 37° C. 12 μl of detection reagent (Path Hunter Detection Kit, DiscoveRx, #93-0001) is transferred to the assay plate and to the plate is incubated for 1 hour at room temperature. Luminescent signal is read in a microplate reader (FLUOstar Optima, bmg). The calculated EC50 values may fluctuate depending on the daily cellular assay performance. Fluctuations of this kind are known to those skilled in the art. Average EC50 values from several measurements are given as geometric mean values.
(In general: Recruitment of arrestin is a read-out of receptor activation apart from second messengers.)
In general, EC50 refers to the concentration that produces a half-maximal response. Read a high EC50 as a less potent agent. `CC(C)NCCN(Cc1ccccc1C(F)(F)F)C(=O)CNc1cccc2c1OCC(=O)N(CC1CC1)C2` [Example 68, 2-(4-Cyclopropylmethyl-3-oxo-2,3,4,5-tetrahydro-benzo[f][1,4]oxazepin-9-ylamino)-N-(2-isopropylamino-ethyl)-N-(2-trifluoromethyl-benzyl)-acetamide] registered an EC50 of 0.015 µM.
Compound `CCN1CCOc2c(cccc2NCC(=O)N(CCN(C)C)Cc2ccccc2C(F)(F)F)C1` [Example 5, N-(2-Dimethylamino-ethyl)-2-(4-ethyl-2,3,4,5-tetrahydro-benzo[f][1,4]oxazepin-9-ylamino)-N-(2-trifluoromethyl-benzyl)-acetamide] showed an EC50 of 0.007 µM.
`CN(C)CCN(Cc1ccccc1C(F)(F)F)C(=O)COc1cccc2c1CCN(CC1CC1)CC2` [Example 23, 2-(3-Cyclopropylmethyl-2,3,4,5-tetrahydro-1H-benzo[d]azepin-6-yloxy)-N-(2-dimethylamino-ethyl)-N-(2-trifluoromethyl-benzyl)-acetamide] gave an EC50 of 0.001 µM.
In turn, `CN(C)CCN(Cc1ccccc1C(F)(F)F)C(=O)CNc1cccc2c1C(=O)N(CC1CC1)CCO2` [Example 38, 2-(4-Cyclopropylmethyl-5-oxo-2,3,4,5-tetrahydro-benzo[f][1,4]oxazepin-6-ylamino)-N-(2-dimethylamino-ethyl)-N-(2-trifluoromethyl-benzyl)-acetamide] returned an EC50 of 0.004 µM.
With `CC(C)CN1CCOc2c(cccc2NCC(=O)N(CCN2CCCC2=O)Cc2ccccc2C(F)(F)F)C1` [Example 11, 2-(4-Isobutyl-2,3,4,5-tetrahydro-benzo[f][1,4]oxazepin-9-ylamino)-N-[2-(2-oxo-pyrrolidin-1-yl)-ethyl]-N-(2-trifluoromethyl-benzyl)-acetamide], the EC50 was 0.19 µM.
On to `CC(C)N(CCN(Cc1ccccc1C(F)(F)F)C(=O)CNc1cccc2c1C(=O)N(CC1CC1)CCO2)C(=O)OC(C)(C)C` [Example 35, {2-[[2-(4-Cyclopropylmethyl-5-oxo-2,3,4,5-tetrahydro-benzo[f][1,4]oxazepin-6-ylamino)-acetyl]-(2-trifluoromethyl-benzyl)-amino]-ethyl}-isopropyl-carbamic acid tert-butyl ester], for which the EC50 stood at 0.42 µM.
For `CN(C)CCN(Cc1ccccc1C(F)(F)F)C(=O)CNc1cccc2c1OCCN(CC1CC1)C2` [Example 84, 2-(4-Cyclopropylmethyl-2,3,4,5-tetrahydro-benzo[f][1,4]oxazepin-9-ylamino)-N-(2-dimethylamino-ethyl)-N-(2-trifluoromethyl-benzyl)-acetamide], the EC50 was determined as 0.004 µM.
For the compound `CC(C)(C)NCCN(Cc1ccccc1Cl)C(=O)CNc1cccc2c1CN(CC1CC1)CCO2` [Example 91, N-(2-tert-Butylamino-ethyl)-N-(2-chloro-benzyl)-2-(4-cyclopropylmethyl-2,3,4,5-tetrahydro-benzo[f][1,4]oxazepin-6-ylamino)-acetamide], the EC50 turned out to be 0.008 µM.
In turn, `CN(C)CCN(Cc1cccc(Cl)c1Cl)C(=O)CNc1cccc2c1C(=O)N(CC1CC1)CCO2` [Example 30, 2-(4-Cyclopropylmethyl-5-oxo-2,3,4,5-tetrahydro-benzo[f][1,4]oxazepin-6-ylamino)-N-(2,3-dichloro-benzyl)-N-(2-dimethylamino-ethyl)-acetamide] yielded a 50% effective concentration (EC50) of 0.0078 µM.
Regarding `CC(=O)N1CCOc2c(cccc2NCC(=O)N(CCN(C)C)Cc2ccccc2C(F)(F)F)C1` [Example 20, 2-(4-Acetyl-2,3,4,5-tetrahydro-benzo[f][1,4]oxazepin-9-ylamino)-N-(2-dimethylamino-ethyl)-N-(2-trifluoromethyl-benzyl)-acetamide], the response was half-maximal at 0.073 µM (EC50).
Then `CC(C)(C)NCCN(Cc1ccccc1C(F)(F)F)C(=O)CNc1cccc2c1OCC(=O)N(CC1CC1)C2` [Example 66, N-(2-tert-butylamino-ethyl)-2-(4-cyclopropylmethyl-3-oxo-2,3,4,5-tetrahydro-benzo[f][1,4]oxazepin-9-ylamino)-N-(2-trifluoromethyl-benzyl)-acetamide], with 0.018 µM; and `CCN1CCOc2c(NCC(=O)N(CCN(C)C)Cc3ncccc3C)cccc2C1=O` [Example 39, N-(2-Dimethylamino-ethyl)-2-(4-ethyl-5-oxo-2,3,4,5-tetrahydro-benzo[f][1,4]oxazepin-9-ylamino)-N-(3-methyl-pyridin-2-ylmethyl)-acetamide], with 0.4 µM; and `CCN1CCOc2c(NCC(=O)N(CCN3CCCC3)Cc3ncccc3C(F)(F)F)cccc2C1=O` [Example 57, 2-(4-Ethyl-5-oxo-2,3,4,5-tetrahydro-benzo[f][1,4]oxazepin-9-ylamino)-N-(2-pyrrolidin-1-yl-ethyl)-N-(3-trifluoromethyl-pyridin-2-ylmethyl)-acetamide], with 0.06 µM.
For the compound `CC(C)CN1CCOc2c(cccc2NCC(=O)N(CCN2CCCC2)Cc2ccc(F)cc2F)C1` [Example 12, N-(2,4-Difluoro-benzyl)-2-(4-isobutyl-2,3,4,5-tetrahydro-benzo[f][1,4]oxazepin-9-ylamino)-N-(2-pyrrolidin-1-yl-ethyl)-acetamide], a half-maximal effect (EC50) was put at 0.014 µM.
`O=C(CNc1cccc2c1OCCN(CC1CC1)C2)N(CCN1CCCC1)Cc1ncccc1C(F)(F)F` [Example 82, 2-(4-Cyclopropylmethyl-2,3,4,5-tetrahydro-benzo[f][1,4]oxazepin-9-ylamino)-N-(2-pyrrolidin-1-yl-ethyl)-N-(3-trifluoromethyl-pyridin-2-ylmethyl)-acetamide] returned an EC50 of 0.002 µM.
The compound `CC(C)CN1CCOc2c(cccc2NCC(=O)N(CCN(C)C)Cc2cccc(Br)c2)C1` [Example 8, N-(3-Bromo-benzyl)-N-(2-dimethylamino-ethyl)-2-(4-isobutyl-2,3,4,5-tetrahydro-benzo[f][1,4]oxazepin-9-ylamino)-acetamide] came in with an EC50 of 0.036 µM.
The same measure for `CN(C)CCN(Cc1ccccc1C(F)(F)F)C(=O)CNc1cccc2c1OCCN(CC1CC1)C2=O` [Example 61, 2-(4-Cyclopropylmethyl-5-oxo-2,3,4,5-tetrahydro-benzo[f][1,4]oxazepin-9-ylamino)-N-(2-dimethylamino-ethyl)-N-(2-trifluoromethyl-benzyl)-acetamide]: 0.009 µM.
`CC(C)NCCN(Cc1ccccc1C(F)(F)F)C(=O)CNc1cccc2c1N(C)CCN(CC1CC1)C2` [Example 52, 2-(4-Cyclopropylmethyl-1-methyl-2,3,4,5-tetrahydro-1H-benzo[e][1,4]diazepin-9-ylamino)-N-(2-isopropylamino-ethyl)-N-(2-trifluoromethyl-benzyl)-acetamide] returned an EC50 of 0.001 µM.
Compound `CC(C)CN1CCOc2c(cccc2NCC(=O)N(CCN(C)C)Cc2ncccc2Cl)C1` [Example 3, N-(3-Chloro-pyridin-2-ylmethyl)-N-(2-dimethylamino-ethyl)-2-(4-isobutyl-2,3,4,5-tetrahydro-benzo[f][1,4]oxazepin-9-ylamino)-acetamide] displayed an EC50 of 0.009 µM.
The same measure for `CCN1CCOc2c(NCC(=O)N(CCN(C)C)Cc3ncccc3C(F)(F)F)cccc2C1=O` [Example 58, N-(2-Dimethylamino-ethyl)-2-(4-ethyl-5-oxo-2,3,4,5-tetrahydro-benzo[f][1,4]oxazepin-9-ylamino)-N-(3-trifluoromethyl-pyridin-2-ylmethyl)-acetamide]: 0.074 µM.
As for `CN(C)CCN(Cc1cccc(Cl)c1Cl)C(=O)CNc1cccc2c1CN(CC1CC1)CCO2` [Example 88, 2-(4-Cyclopropylmethyl-2,3,4,5-tetrahydro-benzo[f][1,4]oxazepin-6-ylamino)-N-(2,3-dichloro-benzyl)-N-(2-dimethylamino-ethyl)-acetamide], the EC50 was 0.015 µM.
Then `COCC(=O)N1CCc2cccc(OCC(=O)N(CCN(C)C)Cc3ccccc3C(F)(F)F)c2CC1` [Example 24, N-(2-Dimethylamino-ethyl)-2-[3-(2-methoxy-acetyl)-2,3,4,5-tetrahydro-1H-benzo[d]azepin-6-yloxy]-N-(2-trifluoromethyl-benzyl)-acetamide], with 0.003 µM; and `CCN1CCOc2c(NCC(=O)N(CCNC(C)C)Cc3ccccc3C(F)(F)F)cccc2C1=O` [Example 56, 2-(4-Ethyl-5-oxo-2,3,4,5-tetrahydro-benzo[f][1,4]oxazepin-9-ylamino)-N-(2-isopropylamino-ethyl)-N-(2-trifluoromethyl-benzyl)-acetamide], with 0.016 µM; and `CC(C)(C)NCCN(Cc1ccccc1C(F)(F)F)C(=O)CNc1cccc2c1CN(CC1CC1)CCO2` [Example 93, N-(2-tert-Butylamino-ethyl)-2-(4-cyclopropylmethyl-2,3,4,5-tetrahydro-benzo[f][1,4]oxazepin-6-ylamino)-N-(2-trifluoromethyl-benzyl)-acetamide], with 0.003 µM.
